Data taken from patent US10059741B2 (priority 2015, dated 2018).
Read-outs that look alike come from different tables or passages of the source. Bridge positions count the residues as written; N and C are the ends. Square brackets hold non-standard residues; d marks the D form. Peptide text beside a SMILES is read from it. R8 = C=CCCCCCC[C@@](C)(N)C(=O)O; S5 = C=CCCC[C@](C)(N)C(=O)O; Nle = CCCC[C@H](N)C(=O)O

Key:
[1] = system: H1N1 California/07/2009; assay: microbe, parasite or virus in culture; type: cell-based, influenza A virus
[2] = system: H3N2 Perth/16/2009; assay: microbe, parasite or virus in culture; type: cell-based, influenza A virus
[3] = system: H1N1 California/07/2009; assay: microbe, parasite or virus in culture; type: cell-based, influenza A virus; details: for EC90: Drug Assay Visual/Neutral Red
[4] = system: H3N2 Perth/16/2009; assay: microbe, parasite or virus in culture; type: cell-based, influenza A virus; details: for EC90: Influenza A H3N2 Perth/16/2009, Drug Assay Visual/Neutral Red
[5] = system: H1N1 A/Solomon Island/03/2006; type: cell-based, influenza A virus; details: Influenza A H1N1 A/Solomon Is./3/2006-M; Drug Assay Neutral Red; read-out: EC50
[6] = system: H5N1 A/Hong Kong/213/2003; assay: microbe, parasite or virus in culture; type: cell-based, influenza A virus; details: read-out: EC50
[7] = system: H7N9 A/Anhui/1/2013; assay: microbe, parasite or virus in culture; type: cell-based, influenza A virus; details: read-out: EC50
[8] = system: influenza virus, various viral strains; assay: organism not typed; type: cell-based; details: Influenza A H1N1 A/Solomon Is./3/2006-M; Drug Assay Visual; read-out: EC50
[9] = in vitro; details: dog
[10] = Cytopathic effect/toxicity (Visual), MDCK cells, read-out: EC50 (μM) H1N1 California/07/2009
[11] = Influenza A H1N1 California/07/2009, Drug Assay Visual, read-out: EC50
[12] = Cytopathic effect/toxicity (Visual), MDCK cells, read-out: EC50 (μM) H3N2 Perth/16/2009
[13] = Influenza A H3N2 Perth/16/2006 (so in the source), Drug Assay Visual, read-out: EC50
[14] = Cytopathic effect/toxicity (Neutral red), MDCK cells, read-out: EC50 (μM) H1N1 California/07/2009
[15] = Influenza A H1N1 California/07/20/09 (so in the source), later run, Drug Assay Neutral Red, read-out: EC50
[16] = Influenza A H1N1 California/07/20/09 (so in the source)
[17] = Influenza A H1N1 California/07/2009, Drug Assay Neutral Red, read-out: EC50
[18] = Cytopathic effect/toxicity (Neutral red), MDCK cells, read-out: EC50 (μM) H3N2 Perth/16/2009
[19] = Influenza A H3N2 Perth/16/2006 (so in the source), Drug Assay Neutral Red, read-out: EC50
[20] = Influenza A H3N2 Perth/16/2009, last run, Drug Assay Neutral Red, read-out: EC50
[21] = CC50 (μM) H1N1 California/07/2009, Cell cytotoxicity (CC), run with H1N1 California/07/2009
[22] = CC50 (μM) H3N2 Perth/16/2009, Cell cytotoxicity (CC), run with H3N2 Perth/16/2009
[23] = CC50, run with Influenza A H1N1 A/Solomon Is./3/2006-M, Neutral Red
[24] = CC50, run with Influenza A H1N1 A/Solomon Is./3/2006-M, Visual
[25] = CC50, run with Influenza A H1N1 California/07/20/09 (so in the source), later run, Neutral Red
[26] = CC50, run with Influenza A H1N1 California/07/20/09 (so in the source), Visual/Neutral Red
[27] = CC50, run with Influenza A H1N1 California/07/2009, Neutral Red
[28] = CC50, run with Influenza A H1N1 California/07/2009, Visual
[29] = CC50, run with Influenza A H3N2 Perth/16/2006 (so in the source), Neutral Red
[30] = CC50, run with Influenza A H3N2 Perth/16/2006 (so in the source), Visual
[31] = CC50, run with Influenza A H3N2 Perth/16/2009, last run, Neutral Red
[32] = CC50, run with Influenza A H3N2 Perth/16/2009, Visual/Neutral Red

Compound | EC50 [1, 10] [µM] | EC50 [1, 11] [µM] | EC50 [2, 12] [µM] | EC50 [2, 13] [µM] | EC50 [3, 14] [µM] | EC50 [3, 15] [µM] | EC90 [3, 16] [µM] | EC50 [3, 17] [µM] | EC50 [4, 18] [µM] | EC50 [4, 19] [µM] | EC50 [4, 20] [µM] | EC90 [4] [µM] | EC50 [5] [µM] | EC50 [6] [µM] | CC50 [9, 21] [µM] | CC50 [9, 22] [µM] | CC50 [9, 27] [µM] | CC50 [9, 28] [µM] | CC50 [9, 29] [µM] | CC50 [9, 30] [µM] | further results
CCCC[C@H](NC(C)=O)C(=O)N[C@@H](CC(=O)O)C(=O)N[C@H](C(=O)N[C@@H](CC(N)=O)C(=O)N[C@]1(C)CCCCCCC=CCCC[C@@](C)(C(=O)N[C@@H](C)C(=O)N[C@@H](C)C(=O)N[C@@H](C)C(=O)N[C@@H](C)C(=O)N[C@@H](C)C(N)=O)NC(=O)[C@H](C)NC(=O)[C@H](CC(C)C)NC(=O)[C@H](Cc2ccccc2)NC(=O)[C@H](CC(C)C)NC(=O)[C@H](CC(C)C)NC(=O)[C@H]([C@@H](C)O)NC1=O)C(C)C [SP-25] (Ac-[Nle]DVN[R8]TLLFLA[S5]AAAAA-NH2; staple 5-12) | < 1.5 | 0.57 | < 1.5 | 0.34 | < 1.5 | 6.6 | 8.2 | 1.1 | < 1.5 | 0.43 | 49 | 49 | 6.5 | > 50 | > 100 | > 100 | > 100 | > 100 | > 100 | > 100 | EC50 [7]: 33 µM; EC50 [8]: 3.6 µM; CC50 ([9]; CC50): > 50 µM; CC50 [9, 23]: > 100 µM; CC50 [9, 24]: > 100 µM; CC50 [9, 25]: > 100 µM; CC50 [9, 26]: > 100 µM; CC50 [9, 31]: > 100 µM; CC50 [9, 32]: > 100 µM
CCCC[C@H](NC(C)=O)C(=O)N[C@@H](CC(=O)O)C(=O)N[C@H](C(=O)N[C@@H](CC(N)=O)C(=O)N[C@]1(C)CCCCCCC=CCCC[C@@](C)(C(=O)N[C@@H](CCC(N)=O)C(=O)N[C@@H](C)C(=O)N[C@@H](CCC(N)=O)C(=O)N[C@@H](C)C(=O)N[C@@H](C)C(N)=O)NC(=O)[C@H](C)NC(=O)[C@H](CC(C)C)NC(=O)[C@H](Cc2ccccc2)NC(=O)[C@H](CC(C)C)NC(=O)[C@H](CC(C)C)NC(=O)[C@H]([C@@H](C)O)NC1=O)C(C)C [SP-26] (Ac-[Nle]DVN[R8]TLLFLA[S5]QAQAA-NH2; staple 5-12) | < 1.5 | 0.75 | 10 to 25 | 14 | 1.5 to 10 |  |  | 2.1 | 10 to 25 | 23 |  |  |  |  | > 100 | > 100 | > 100 | > 100 | > 100 | > 100 | 
CCCC[C@H](NC(C)=O)C(=O)N[C@@H](CC(=O)O)C(=O)N[C@H](C(=O)N[C@@H](CC(N)=O)C(=O)N[C@]1(C)CCCCCCC=CCCC[C@@](C)(C(=O)N[C@@H](CCC(N)=O)C(=O)N[C@@H](C)C(=O)N[C@@H](C)C(=O)N[C@@H](C)C(=O)N[C@@H](C)C(N)=O)NC(=O)[C@H](C)NC(=O)[C@H](CC(C)C)NC(=O)[C@H](Cc2ccccc2)NC(=O)[C@H](CC(C)C)NC(=O)[C@H](CC(C)C)NC(=O)[C@H]([C@@H](C)O)NC1=O)C(C)C [SP-27] (Ac-[Nle]DVN[R8]TLLFLA[S5]QAAAA-NH2; staple 5-12) | < 1.5 | 0.57 | < 1.5 | 0.32 | < 1.5 | 8.7 | 8 | 0.44 | 1.5 to 10 | 1.7 | 35 | 35 | 75 | > 50 | > 100 | > 100 | > 100 | > 100 | > 100 | > 100 | EC50 [7]: 9.6 µM; EC50 [8]: 32 µM; CC50 ([9]; CC50): > 50 µM; CC50 [9, 23]: > 100 µM; CC50 [9, 24]: > 100 µM; CC50 [9, 25]: > 100 µM; CC50 [9, 26]: > 100 µM; CC50 [9, 31]: > 100 µM; CC50 [9, 32]: > 100 µM
